# Experimental data: PubChem BioAssay AID1963839 (Molecular Pharmacology Branch, DTP, NCI, 2024)
# pIC50: −log10 of the molar value. Several values for one entry are separate records, joined by “and”; a condition that tells them apart may be missing. Equal entries are not always repeated.
# Tested on: 817829-284-R-J1-PDC complex spheroid viability
# Experiment: Anticancer human tumor 817829-284-R-J1-PDC patient-derived colon adenocarcinoma cell line growth inhibition [POLQ]
# Conditions: for viability, T/C: stronger effect = lower value
# Experimental: Multicellular complex tumor spheroid response to Polymerase (POL) inhibitors (novobiocin, ART-558, RP6685) in combination with a variety of drugs and investigational agents in selected tumor cell lines
# The POL inhibitors (novobiocin, ART-558, and RP6685) were evaluated both individually and in combination with standard of care and investigational anticancer small molecules within a complex spheroid model of solid tumors. . Complex spheroids include a stromal component modeled by human endothelial cells (HUVEC) and fibroblasts modeled by human mesenchymal stem cells (MSCs). The concentration ranges selected for each drug and investigational agent were based upon clinically achievable concentrations if the clinical Cmax of the agent was known.
# Compounds. The drugs and investigational agents: novobiocin (NSC847541), ART-558 (NSC835418), RP-6685 (NSC848927), peposertib (NSC802822), ceralasertib (NSC780249), elimusertib (NSC800525), camonsertib (NSC841442), AZD-1390 (NSC803789), olaparib (NSC753686), talazoparib (NSC767125), rucaparib (NSC756644), sotorasib (NSC818433), MRTX-1133 (NSC836407), SN-38 (NSC673596), topotecan (NSC609699), epotoside (NSC141540), doxorubicin (NSC123127), gemcitabine (NSC613327), 5-fluorouracil (NSC19893), paclitaxel (NSC125973), vemurafenib (NSC761431), MSA-2 (NSC828583), SN-011 (NSC837082), adavosertib (NSC754352), prexasertib (NSC758257), carboplatin (NSC241240) and oxaliplatin (NSC266046), were obtained from the National Cancer Institute (NCI) Developmental Therapeutics Program Chemical Repository (21). The FDA-approved anticancer drug set is available from the Developmental Therapeutics Program at https://dtp.cancer.gov/organization/dscb/obtaining/. […] The stock solutions were prepared in dimethyl sulfoxide (DMSO, Sigma-Aldrich, St. Louis, MO, cat. D2650), except for the platinum compounds which were prepared in saline (Quality Biological, Gaithersburg, MD, cat. 114-055-101), at 800-fold the tested concentration and stored at -70 degrees C prior to their use. All drugs and investigational agents were tested over a range starting from a high concentration at or near the clinical Cmax and decreasing in half-log increments. If the clinical Cmax for an agent had not been determined, the highest concentration tested was 10 microM, except for SN-38, which was tested at a high concentration of 1 microM.
# Cell Culture. All cells were maintained in an incubator at 37 degrees C and 5% CO2 with 95% humidity. The PDC lines were cultured according to standard operating procedures established by the NCI PDMR (https://pdmr.cancer.gov). Table 3 of the manuscript, lists the cell lines along with the number of the three cell types plated to form the mct-spheroids and media for tumor cell growth. After thawing, all PDC lines, except 997537-175-T-J1-PDC and 415267-285-R-J2-PDC, were cultured in Matrigel-coated flasks prepared with a working solution of 1X Ham's F-12 nutrient mix, without supplementation (Thermo Fisher Scientific, cat. 11765054), 100 U/mL penicillin-streptomycin (Thermo Fisher Scientific, cat. 15140122), and 2.5% Matrigel (Corning Inc., Corning, NY, cat. 354248) for the first three passages. The two PDC lines 997537-175-T-J1-PDC and 415267-285-R-J2-PDC were cultured on uncoated flasks. The 857933-349-R-J2-PDC line was cultured in 6C/Colon 1B media containing advanced DMEM/F-12 (Thermo Fisher Scientific, cat. 12634028), 10 mM HEPES (Thermo Fisher Scientific, cat. 15630080), 1X GlutaMAX supplement (Thermo Fisher Scientific, cat. 35050061), 0.1 mg/mL primocin (InvivoGen, San Diego, CA, cat. ant-pm-2), 10% defined fetal bovine serum, heat inactivated (HyClone Laboratories Inc., Logan, UT, cat. SH30070.03HI), 50% L-WRN conditioned media (ATCC, cat. CRL-3276), 1.25 mM N-Acetyl-L-cysteine (Sigma-Aldrich, cat. A9165), 10 mM nicotinamide (Sigma-Aldrich, cat. N0636), 1X B-27 supplement (Thermo Fisher Scientific, cat. 17504044), 1X N-2 supplement (Thermo Fisher Scientific, cat. […]
# 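Note: spheroids exposed to compounds for 7 days.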
# 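Throughout, for viability, T/C: 100% = DMSO vehicle-treated spheroids.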
smiles,measurement,setting,value
CNCc1ccc(-c2[nH]c3cc(F)cc4c3c2CCNC4=O)cc1 + COC1C(OC(N)=O)C(O)C(Oc2ccc3c(O)c(NC(=O)c4ccc(O)c(CC=C(C)C)c4)c(=O)oc3c2C)OC1(C)C,pIC50,"curve of first compound, second compound 0.0316 µM",5.18
same,pIC50,"curve of first compound, second compound 0.1 µM",< 5.00
same,pIC50,"curve of first compound, second compound 0.316 µM",< 5.00
same,pIC50,"curve of first compound, second compound 1 µM",5.28
same,pIC50,"curve of first compound, second compound 3.16 µM",5.29
same,pIC50,"curve of first compound, second compound 10 µM",5.27
same,"viability, T/C","second compound 0.0316 µM, first compound 0.0316 µM",95.8%
same,"viability, T/C","second compound 0.0316 µM, first compound 0.1 µM",94%
same,"viability, T/C","second compound 0.0316 µM, first compound 0.316 µM",83%
same,"viability, T/C","second compound 0.0316 µM, first compound 1 µM",76.8%
same,"viability, T/C","second compound 0.0316 µM, first compound 3.16 µM",68.8%
same,"viability, T/C","second compound 0.0316 µM, first compound 10 µM",40.2%
same,"viability, T/C","second compound 0.1 µM, first compound 0.0316 µM",73.3%
same,"viability, T/C","second compound 0.1 µM, first compound 0.1 µM",102%
same,"viability, T/C","second compound 0.1 µM, first compound 0.316 µM",86%
same,"viability, T/C","second compound 0.1 µM, first compound 1 µM",55.2%
same,"viability, T/C","second compound 0.1 µM, first compound 3.16 µM",72.8%
same,"viability, T/C","second compound 0.1 µM, first compound 10 µM",53.3%
same,"viability, T/C","second compound 0.316 µM, first compound 0.0316 µM",99.1%
same,"viability, T/C","second compound 0.316 µM, first compound 0.1 µM",108%
same,"viability, T/C","second compound 0.316 µM, first compound 0.316 µM",83.7%
same,"viability, T/C","second compound 0.316 µM, first compound 1 µM",80.4%
same,"viability, T/C","second compound 0.316 µM, first compound 3.16 µM",74.3%
same,"viability, T/C","second compound 0.316 µM, first compound 10 µM",51.5%
same,"viability, T/C","second compound 1 µM, first compound 0.0316 µM",125%
same,"viability, T/C","second compound 1 µM, first compound 0.1 µM",91.6%
same,"viability, T/C","second compound 1 µM, first compound 0.316 µM",107%
same,"viability, T/C","second compound 1 µM, first compound 1 µM",81.8%
same,"viability, T/C","second compound 1 µM, first compound 3.16 µM",80.3%
same,"viability, T/C","second compound 1 µM, first compound 10 µM",22%
same,"viability, T/C","second compound 3.16 µM, first compound 0.0316 µM",119%
same,"viability, T/C","second compound 3.16 µM, first compound 0.1 µM",109%
same,"viability, T/C","second compound 3.16 µM, first compound 0.316 µM",98.9%
same,"viability, T/C","second compound 3.16 µM, first compound 1 µM",103%
same,"viability, T/C","second compound 3.16 µM, first compound 3.16 µM",58.5%
same,"viability, T/C","second compound 3.16 µM, first compound 10 µM",38.2%
same,"viability, T/C","second compound 10 µM, first compound 0.0316 µM",98%
same,"viability, T/C","second compound 10 µM, first compound 0.1 µM",99%
same,"viability, T/C","second compound 10 µM, first compound 0.316 µM",75.1%
same,"viability, T/C","second compound 10 µM, first compound 1 µM",90.1%
same,"viability, T/C","second compound 10 µM, first compound 3.16 µM",73.9%
same,"viability, T/C","second compound 10 µM, first compound 10 µM",23.1%
CCc1c2c(nc3ccc(O)cc13)-c1cc3c(c(=O)n1C2)COC(=O)[C@]3(O)CC,"viability, T/C",compound 0.00316 µM,19.4% and 20.1% and 25.3%
same,"viability, T/C",compound 0.01 µM,16.5% and 16.4% and 16.3%
same,"viability, T/C",compound 0.0316 µM,13.7% and 12.4% and 11.8%
same,"viability, T/C",compound 0.1 µM,7.6% and 9.24% and 7.39%
same,"viability, T/C",compound 0.316 µM,6.4% and 5.1% and 5.47%
same,"viability, T/C",compound 1 µM,3.09% and 2.77% and 3.28%
same,pIC50,curve of compound,> 8.50
COc1cc(C2c3cc4c(cc3C(OC3OC5COC(C)OC5C(O)C3O)C3COC(=O)C23)OCO4)cc(OC)c1O (stereo not drawn),"viability, T/C",compound 0.0316 µM,60.4% and 73.7% and 73.4%
same,"viability, T/C",compound 0.1 µM,32.3% and 48.6% and 33.4%
same,"viability, T/C",compound 0.316 µM,15.3% and 18.4% and 14.9%
same,"viability, T/C",compound 1 µM,19.1% and 18.8% and 20.4%
same,"viability, T/C",compound 3.16 µM,16.7% and 11.9% and 11.2%
same,"viability, T/C",compound 10 µM,6.7% and 6.64% and 6.97%
same,pIC50,curve of compound,7.32 and 7.04 and 7.21
CCc1cc2c(N3CCc4c(cc(Cn5ccnc5)cc4-c4cn(C)nc4C(F)(F)F)C3=O)cc(C)nc2c(OC)n1,"viability, T/C",compound 0.0316 µM,88.4% and 75.3% and 76.3%
same,"viability, T/C",compound 0.1 µM,85.8% and 83.5% and 79.4%
same,"viability, T/C",compound 0.316 µM,75.3% and 63.8% and 69.3%
same,"viability, T/C",compound 1 µM,80.6% and 56.1% and 65.8%
same,"viability, T/C",compound 3.16 µM,46.4% and 44.7% and 47.9%
same,"viability, T/C",compound 10 µM,33.1% and 29.7% and 30.8%
same,pIC50,curve of compound,5.55 and 5.76
